COc1ccc(Cl)cc1C(=O)NCCc1ccc(S(=O)(=O)NC(=O)NC2CCCCC2)cc1
solubility (mole fraction)
Details	283.15 K	288.15 K	293.15 K	298.15 K	303.15 K	308.15 K	313.15 K	318.15 K	323.15 K
in MIBK	0.000198	0.000227	0.000276	0.000336	0.000426	0.000529	0.000655	0.000789	0.000908
in acetone	0.000471	0.000568	0.00069	0.000894	0.00109	0.00134	0.00171	0.00214	0.00261
in acetonitrile	5.25e-05	7.15e-05	9.85e-05	0.000131	0.000163	0.000225	0.000316	0.000418	0.000558
in ethanol	0.000108	0.00015	0.000188	0.000249	0.000316	0.000412	0.000591	0.000865	0.00116
in ethyl acetate	9.01e-05	0.000121	0.00015	0.000181	0.000226	0.00029	0.000375	0.000486	0.000627
in isopropanol	7.55e-05	8.89e-05	0.000126	0.000162	0.000207	0.000271	0.000401	0.000619	0.000934
in methanol	0.000124	0.000165	0.00021	0.000284	0.000355	0.000488	0.000695	0.00105	0.00143
in methyl acetate	0.000127	0.000164	0.000202	0.000246	0.000296	0.000372	0.000492	0.000629	0.000769
in n-butanol	0.000186	0.000223	0.000242	0.000284	0.000334	0.000445	0.000646	0.000922	0.00135
in n-propanol	0.0001	0.000125	0.000163	0.000225	0.000286	0.000381	0.000538	0.000729	0.000983
in sec-butanol	6.35e-05	7.97e-05	0.000104	0.000141	0.000184	0.000248	0.000365	0.000568	0.000887

From BigSolDB 2.1
